Assay results from patent publication US6174877A, “Carbapenem compound, their production and use” (Takeda Chemical Industries, Ltd., priority 1996, dated 2001).
Converted amounts (≈) assume the structure as drawn. Like-named read-outs stand apart in the source and are kept apart here.

Columns and labels:
[1] = test system: H. influenzae NN400; experiment: Minimum inhibitory concentration (MIC) by agar dilution method; type: cell-based; conditions: Haemophilus influenzae
Description: (§1) Minimum Inhibitory Concentration (MIC)
(§2) The minimum inhibitory concentration [MIC (unit: (μg/ml)] of the test compound was determined by an agar dilution method. More specifically, 0.25 ml of an aqueous solution of the test compound diluted stepwise was put into a Petri dish, which was then mixed with 9.75 ml of Muller-Hinton agar containing fildis enrichment [F-MH medium. fildis enrichment (5%)]). On thus-prepared mixed agar plate, a suspension of the test bacteria (about 10^6 CFU/ml) was spread, which was incubated at 37° C. overnight.

[2] = test system: E. coli NHIJ JC-2; experiment: as above; type: cell-based; conditions: Escherichia coli
Description: as §1, §2

[3] = strain H. influenzae NN400, medium F-MH, 10^6 CFU/ml, 37° C. overnight, read-out: MIC (μg/ml) 10^6 CFU/ml H. influenzae NN400
[4] = NHIJJC2, strain E. coli NHIJ JC-2, medium F-MH, 10^6 CFU/ml, 37° C. overnight, read-out: MIC (μg/ml) 10^6 CFU/ml E. coli NHIJ JC-2
[5] = NN400, read-out: MIC (μg/ml) 10^6 CFU/ml H. influenzae NN400
[6] = NHIJJC2, read-out: MIC (μg/ml) 10^6 CFU/ml E. coli NHIJ JC-2

SMILES	MIC [1, 3] [µg/mL]	MIC [2, 4] [µg/mL]	MIC [1, 5] [µg/mL]	MIC [2, 6] [µg/mL]
C[C@@H](O)[C@H]1C(=O)N2C(C(=O)[O-])=C(SCCc3cc[nH]n3)[C@H](C)[C@H]12.[Na+] [Working Example 3-3, Sodium (4R,5S,6S)-6-[(1R)-1-hydroxyethyl]-4-methyl-7-oxo-3-[2-(3-pyrazolyl)ethylthio]-1-azabicyclo[3.2.0]hept-2-ene-2-carboxylate]	–	–	0.1	0.1
C[C@@H](O)[C@H]1C(=O)N2C(C(=O)[O-])=C(SCCc3cn4ccccc4n3)[C@H](C)[C@H]12.[Na+] [Working Example 18-2, Sodium (4R,5S,6S)-6-[(R)-1-hydroxyethyl]-3-[2-(imidazo[1,2-a]pyridin-2-yl)ethylthio]-4-methyl-7-oxo-1-azabicyclo[3.2.0]hept-2-ene-2-carboxylate]	–	–	0.1	0.2
C[C@@H](O)[C@H]1C(=O)N2C(C(=O)[O-])=C(SCCc3cn4cccnc4n3)[C@H](C)[C@H]12.[Na+] [Working Example 32-2, Sodium (4R,5S,6S)-6-[(1R)-1-hydroxyethyl]-3-[2-(imidazo[1,2-a]pyrimidin-2-yl)ethylthio]-4-methyl-7-oxo-1-azabicyclo[3.2.0]hept-2-ene-2-carboxylate]	–	–	0.05	0.2
C[C@@H](O)[C@H]1C(=O)N2C(C(=O)[O-])=C(SCCc3cn4c(NC(N)=O)cccc4n3)[C@H](C)[C@H]12.[Na+] [Working Example 33-2, Sodium (4R,5S,6S)-6-[(1R)-1-hydroxyethyl]-4-methyl-7-oxo-3-[2-(5-ureidoimidazo[1,2-a]pyridin-2-yl)ethylthio]-1-azabicyclo[3.2.0]hept-2-ene-2-carboxylate]	–	–	0.1	0.2

Continued, in another order:

MIC [1, 3] [µg/mL]	MIC [2, 4] [µg/mL]	SMILES	MIC [1, 5] [µg/mL]	MIC [2, 6] [µg/mL]
0.1 (≈ 0.275 µM)	0.1 (≈ 0.275 µM)	CC(Cc1cccnn1)SC1=C(C(=O)O)N2C(=O)[C@H]([C@@H](C)O)[C@H]2[C@H]1C (single isomer, unassigned; diastereomer-2) [Working Example 17]	–	–
0.78 (≈ 2.61 µM)	0.1 (≈ 0.334 µM)	C[C@@H](O)[C@H]1C(=O)N2C(C(=O)O)=C(SCCN=CN)C[C@H]12 [Imipenem, reference compound]	–	–
0.1	0.025	C[C@@H](O)[C@H]1C(=O)N2C(C(=O)O)=C(SCCc3c[nH]nn3)[C@H](C)[C@H]12 [Working Example 2-3, Sodium (4R,5S,6S)-6-[(1R)-1-hydroxyethyl]-4-methyl-7-oxo-3-[2-(1,2,3-triazol-4-yl)ethylthio]-1-azabicyclo[3.2.0]hept-2-ene-carboxylate]	–	–
0.05	0.2	C[C@@H](O)[C@H]1C(=O)N2C(C(=O)O)=C(SCCc3cn4cc(N)ccc4n3)[C@H](C)[C@H]12 [Working Example 29-2, Sodium (4R,5S,6S)-3-[2-(6-aminoimidazo[1,2-a]pyridin-2-yl)ethylthio]-6-[(1R)-1-hydroxyethyl]-4-methyl-7-oxo-1-azabicyclo[3.2.0]hept-2-ene-carboxylate]	–	–
